Results as given in patent US5559156A, “Method for treating animals infected with Babesia spp” (Glaxo Wellcome, Inc., priority 1994, dated 1996).

Legend:
[1] = system: L. donovani; experiment: Activity against L. donovani in vivo in Balb/c mice; design: species or system L. donovani (in male Balb/c mice); conditions: for % Suppression of Liver Amastigotes: 0.25% cellacol
Protocol: Male Balb/c mice were infected intravenously with 5×10^6 L. donovani amastigotes obtained as in Example 5. One week after infection mice were randomly divided into groups of 5 and treatment with test compound commenced, using cellacol as the vehicle for the test compound. Four days after the completion of treatment all mice were sacrificed. Their livers were removed, weighted and impression smears were fixed with methanol and […] stained. The activity of the compound was determined from the number of amastigotes/500 liver cells in treated and untreated groups.

[2] = system: Leishmania donovani; experiment: Activity against Leishmania donovani in vitro in mouse peritoneal macrophages; format: cell-based, Leishmania donovani (in macrophages of CDl mice)
Protocol: Leishmania donovani was routinely maintained in male golden hamsters (Wright'strain). Amastigotes were isolated from the spleen of infected hamsters 6-8 weeks after infection for use in experimental studies.
The procedure of Neal and Croft (Journal of Antimicrobial Chemotherapy 14, 463-475 (1984) was followed. Mouse peritoneal macrophages were isolated from the peritoneal cavity of outbred CDl mice. Macrophages were cultured in Labtek eight-well tissue chamber slides in RPMI 1640 medium plus 10% heat-inactivated foetal calf serum at 37° in a 5% CO2 -air mixture. Cultures were infected with freshly isolated amastigotes 24 hours before the start of drug treatment. Finally, infected macrophages where incubated in the presence of medium containing the test compound for 7 days, medium being replaced on days 1, 3 and 5 after infection.
The compound was tested in a five-fold dilution series from 50 μM with four replicates at each dilution. Fine suspensions of the compound for testing were prepared by dilution with medium of solutions initially prepared in echanol.
The proportion of infected macrophages in Giemsa stained preparations was determined after 7 days exposure to the test compound. The ED50 value was calculated by a sigmoidal analysis.

[3] = system: B. divergens; experiment: Activity against B. divergens infection in gerbils, single oral dose at the time of infection; format: in vivo; conditions: for % Activity / Days to 0.1% Parasitaemia / Days to Redwater / Maximum % Parasitaemia / % Control % Parasitaemia (day 3): single dose
Protocol: Gerbils, in groups of 5, were injected intraperitoneally with gerbil erythrocytes infected with 10^7 B divergens. At the time of infection, the gerbils were given, per os by stomach tube, a single dose of test compound, diluted in methyl cellulose. The gerbils were assessed for the time to reach 0.1% parasitaemia and the time to reach haemoglobinurea (redwater). The maximum parasitaemia reached and suppression of parasitaemia relative to controls were assessed and the activity of the test compound calculated.

[4] = system: B-divergens; experiment: Activity against B-divergens in vitro in bovine red cells; format: cell-based; conditions: Bos taurus, read-out: IC50 Bovine
Protocol: (§1) Activity against Babesiosis in vitro
(§2) The activity of the test compound against B-divergens in vitro, both in bovine and human red cells was measured and compared with the activities of standard anti-babesials.

[5] = system: B-divergens; experiment: Activity against B-divergens in vitro in human red cells; format: cell-based; conditions: for IC50: read-out: IC50 Human
Protocol: as §1, §2

[6] = system: B-divergens; conditions: two patients; cited from earlier work

## O=C1C(O)=C(C2CCC(c3ccc(Cl)cc3)CC2)C(=O)c2ccccc21 (mixture of isomers) [2-[4-(4-chlorophenyl)cyclohexyl]-3-hydroxy-1,4-naphthoquinone]
[1]; 100 mg/kg/day × 5, Oral
  % Suppression of Liver Amastigotes: 0%
[1]; 100 mg/kg/day × 5, Subcutaneous
  % Suppression of Liver Amastigotes: 30.5%
[1]; subcutaneous
  activity against L. donovani in vivo: active when administered subcutaneously
[2]; 50 μM
  activity against L. donovani in vitro: active at 50 μM concentration against L. donovani
[2]; Leishmania donovani, Peritoneal macrophage, 168 h, 0.4 μM, 7 days
  inhibition at 0.4 µM: 6%
[2]; Leishmania donovani, Peritoneal macrophage, 168 h, 2 μM, 7 days
  inhibition at 2 µM: 0%
[2]; Leishmania donovani, Peritoneal macrophage, 168 h, 10 μM, 7 days
  inhibition at 10 µM: 14.7%
[2]; Leishmania donovani, Peritoneal macrophage, 168 h, 50 μM, 7 days
  inhibition at 50 µM: 64.8%
[2]; Leishmania donovani, Peritoneal macrophage, 168 h, 7 days exposure, sigmoidal analysis, P95% limits in brackets, read-out: ED50 [P95% limits]
  EC50: 29500 nM

## O=C1C(O)=C(C2CCC(c3ccc(Cl)cc3)CC2)C(=O)c2ccccc21 (centres unmarked) [2-[4-(4-chlorophenyl)cyclohexyl]-3-hydroxy-1,4-napthoquinone]
[3]; 0.1 mg/kg per os
  % Activity: 0.0%
  Days to 0.1% Parasitaemia: 1.0 ± 0.0 days
  Days to Redwater: 3.0 ± 0.0 days
  Maximum % Parasitaemia: > 40%
  % Control % Parasitaemia (day 3): 138.7 ± 18.6%
[3]; 1.0 mg/kg per os
  % Activity: 86.1%
  Days to 0.1% Parasitaemia: 2.5 ± 0.57 days
  Days to Redwater: 4.0 ± 0.82 days
  Maximum % Parasitaemia: > 40%
  % Control % Parasitaemia (day 3): 13.9 ± 4.3%
[3]; 10.0 mg/kg per os
  % Activity: 100%
  Days to 0.1% Parasitaemia: 5.6 ± 2.5 days
  Days to Redwater: 9.2 ± 1.8 days
  Maximum % Parasitaemia: 4.02%
  % Control % Parasitaemia (day 3): 0.0%
[3]; 50.0 mg/kg per os
  % Activity: 100%
  Days to 0.1% Parasitaemia: > 10.0 days
  Days to Redwater: > 10.0 days
  Maximum % Parasitaemia: 0.0%
  % Control % Parasitaemia (day 3): 0.0%
[3]; per os
  activity in vivo against B. divergens in gerbils: active in vivo against B. divergens in gerbils

## N=C(N)c1cccc(NC(=O)Nc2cccc(C(=N)N)c2)c1 [Amicarbalide isethionate]
[4]; in vitro, bovine red cells
  IC50: 460 nM
[5]; in vitro, human red cells
  IC50: 517 nM

## CC[n+]1c(-c2ccccc2)c2cc(N)ccc2c2ccc(N)cc21 [Ethidium bromide]
[4]
  IC50: 47 nM
[5]; Homo sapiens
  IC50: 69 nM

## O=C(Nc1cccc(C2=NCCN2)c1)Nc1cccc(C2=NCCN2)c1 [Imizol]
[4]; in vitro, bovine red cells
  IC50: 100 nM
[6]
  use in patients to cure B-divergens: used successfully in two patients to cure B-divergens
[5]; in vitro, human red cells
  IC50: 310 nM

## N=C(N)c1ccc(OCCCCCOc2ccc(C(=N)N)cc2)cc1 [Pentamidine isethionate]
[4]; in vitro, bovine red cells
  IC50: 360 nM
[5]; in vitro, human red cells
  IC50: 456 nM

## C[n+]1cccc2cc(NC(=O)Nc3ccc4c(ccc[n+]4C)c3)ccc21 [Quinuronium sulphate]
[4]; in vitro, bovine red cells
  IC50: 34 nM
[5]; in vitro, human red cells
  IC50: 96 nM

## O=C1C(O)=C([C@H]2CC[C@H](c3ccc(Cl)cc3)CC2)C(=O)c2ccccc21 [Test compound, 2-[trans-4-(4-chlorophenyl)cyclohexyl]-3-hydroxy-1,4-naphthoquinone]
[4]; in vitro, bovine red cells
  IC50: 17.9 nM
[5]; in vitro, human red cells
  IC50: 36.3 nM
[5]; in vitro, Table 1 covers bovine and human red cells
  effectiveness in vitro compared with Imizol: more effective than Imizol in vitro
